According to PubChem BioAssay AID2060885 (Molecular Pharmacology Branch, DTP, NCI, 2025):

Test system: NCI-H23 complex spheroids with HUVEC/MSC, viability
Experiment: Anticancer human tumor NCI-H23 cell line growth inhibition [RAS];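 further: spheroids exposed to compound for 7 days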;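 on viability, T/C: 100% = DMSO vehicle control viability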
Conditions: for IC50: curve of first compound; for viability, T/C: stronger effect = lower value
Summary of the method: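 Tumour cells grown as complex spheroids with HUVEC endothelial cells and mesenchymal stem cells, treated with RAS pathway inhibitor combinations. Each agent spans half-log steps from near clinical Cmax, or 10 microM where Cmax is unknown.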

In the case of `CC(=O)OC12COC1CC(O)C1(C)C(=O)C(O)C3=C(C)C(OC(=O)C(O)C(NC(=O)OC(C)(C)C)c4ccccc4)CC(O)(C(OC(=O)c4ccccc4)C21)C3(C)C` (centres undefined) + C#Cc1c(F)ccc2cc(O)cc(-c3ncc4c(N5CC6CCC(C5)N6)nc(OCC56CCCN5CC(F)C6)nc4c3F)c12, the IC50 (second compound 0.0316 µM) is reported as < 31.6 nM, the IC50 (second compound 0.1 µM) is reported as < 31.6 nM and the IC50 (second compound 0.316 µM) is reported as < 31.6 nM. The IC50 (second compound 1 µM) was < 31.6 nM, the IC50 (second compound 3.16 µM) was < 31.6 nM and the IC50 (second compound 10 µM) was < 31.6 nM. For the same compound, the viability, T/C (second compound 0.0316 µM, first compound 0.0316 µM) was 30.7%, the viability, T/C (second compound 0.0316 µM, first compound 0.1 µM) was 41.2% and the viability, T/C (second compound 0.0316 µM, first compound 0.316 µM) was 37.2%. For the same compound, the viability, T/C (second compound 0.0316 µM, first compound 1 µM) was 32.2%, the viability, T/C (second compound 0.0316 µM, first compound 3.16 µM) was 47.1% and the viability, T/C (second compound 0.0316 µM, first compound 10 µM) was 62.8%. It also gave a viability, T/C (second compound 0.1 µM, first compound 0.0316 µM) of 27.8%, a viability, T/C (second compound 0.1 µM, first compound 0.1 µM) of 36.6% and a viability, T/C (second compound 0.1 µM, first compound 0.316 µM) of 34.6%. For the same compound, the viability, T/C (second compound 0.1 µM, first compound 1 µM) was 30.9%, the viability, T/C (second compound 0.1 µM, first compound 3.16 µM) was 56.1% and the viability, T/C (second compound 0.1 µM, first compound 10 µM) was 71.2%. For the same compound, the viability, T/C (second compound 0.316 µM, first compound 0.0316 µM) was 34.1%, the viability, T/C (second compound 0.316 µM, first compound 0.1 µM) was 35.6% and the viability, T/C (second compound 0.316 µM, first compound 0.316 µM) was 31.3%. It also gave a viability, T/C (second compound 0.316 µM, first compound 1 µM) of 32%, a viability, T/C (second compound 0.316 µM, first compound 3.16 µM) of 46.1% and a viability, T/C (second compound 0.316 µM, first compound 10 µM) of 57.2%. For the same compound, the viability, T/C (second compound 1 µM, first compound 0.0316 µM) was 27.3%, the viability, T/C (second compound 1 µM, first compound 0.1 µM) was 30.5% and the viability, T/C (second compound 1 µM, first compound 0.316 µM) was 32%. The viability, T/C (second compound 1 µM, first compound 1 µM) was 23.6%, the viability, T/C (second compound 1 µM, first compound 3.16 µM) was 36.4% and the viability, T/C (second compound 1 µM, first compound 10 µM) was 46.6%. It also gave a viability, T/C (second compound 3.16 µM, first compound 0.0316 µM) of 20.1%, a viability, T/C (second compound 3.16 µM, first compound 0.1 µM) of 21.6% and a viability, T/C (second compound 3.16 µM, first compound 0.316 µM) of 21.2%. For the same compound, the viability, T/C (second compound 3.16 µM, first compound 1 µM) was 23.6%, the viability, T/C (second compound 3.16 µM, first compound 3.16 µM) was 25.6% and the viability, T/C (second compound 3.16 µM, first compound 10 µM) was 39%. It also gave a viability, T/C (second compound 10 µM, first compound 0.0316 µM) of 17.9%, a viability, T/C (second compound 10 µM, first compound 0.1 µM) of 20.7% and a viability, T/C (second compound 10 µM, first compound 0.316 µM) of 16.5%. The viability, T/C (second compound 10 µM, first compound 1 µM) was 19.1%, the viability, T/C (second compound 10 µM, first compound 3.16 µM) was 23.1% and the viability, T/C (second compound 10 µM, first compound 10 µM) was 30.5%.

Work on `CCc1c2c(nc3ccc(O)cc13)-c1cc3c(c(=O)n1C2)COC(=O)[C@]3(O)CC` + C#Cc1c(F)ccc2cc(O)cc(-c3ncc4c(N5CC6CCC(C5)N6)nc(OCC56CCCN5CC(F)C6)nc4c3F)c12 yielded an IC50 (second compound 0.0316 µM) of 5.66 nM, an IC50 (second compound 0.1 µM) of 4.78 nM and an IC50 (second compound 0.316 µM) of 4.89 nM. The IC50 (second compound 1 µM) was 2.89 nM, the IC50 (second compound 3.16 µM) was 1.25 nM and the IC50 (second compound 10 µM) was < 0.949 nM. The viability, T/C (second compound 0.0316 µM, first compound 0.000949 µM) was 74.6%, the viability, T/C (second compound 0.0316 µM, first compound 0.003 µM) was 75.5% and the viability, T/C (second compound 0.0316 µM, first compound 0.00949 µM) was 29.9%. It also gave a viability, T/C (second compound 0.0316 µM, first compound 0.03 µM) of 13.3%, a viability, T/C (second compound 0.0316 µM, first compound 0.0949 µM) of 9.2% and a viability, T/C (second compound 0.0316 µM, first compound 0.3 µM) of 5.86%. For the same compound, the viability, T/C (second compound 0.1 µM, first compound 0.000949 µM) was 87.8%, the viability, T/C (second compound 0.1 µM, first compound 0.003 µM) was 64.6% and the viability, T/C (second compound 0.1 µM, first compound 0.00949 µM) was 28.2%. For the same compound, the viability, T/C (second compound 0.1 µM, first compound 0.03 µM) was 14.7%, the viability, T/C (second compound 0.1 µM, first compound 0.0949 µM) was 9.07% and the viability, T/C (second compound 0.1 µM, first compound 0.3 µM) was 6.92%. The viability, T/C (second compound 0.316 µM, first compound 0.000949 µM) was 96.7%, the viability, T/C (second compound 0.316 µM, first compound 0.003 µM) was 67.8% and the viability, T/C (second compound 0.316 µM, first compound 0.00949 µM) was 25.4%. It also gave a viability, T/C (second compound 0.316 µM, first compound 0.03 µM) of 12.8%, a viability, T/C (second compound 0.316 µM, first compound 0.0949 µM) of 9.27% and a viability, T/C (second compound 0.316 µM, first compound 0.3 µM) of 5.24%. It also gave a viability, T/C (second compound 1 µM, first compound 0.000949 µM) of 86.9%, a viability, T/C (second compound 1 µM, first compound 0.003 µM) of 49.4% and a viability, T/C (second compound 1 µM, first compound 0.00949 µM) of 18.9%. The viability, T/C (second compound 1 µM, first compound 0.03 µM) was 12.2%, the viability, T/C (second compound 1 µM, first compound 0.0949 µM) was 7.17% and the viability, T/C (second compound 1 µM, first compound 0.3 µM) was 4.02%. The viability, T/C (second compound 3.16 µM, first compound 0.000949 µM) was 56.1%, the viability, T/C (second compound 3.16 µM, first compound 0.003 µM) was 30.8% and the viability, T/C (second compound 3.16 µM, first compound 0.00949 µM) was 11.7%. The viability, T/C (second compound 3.16 µM, first compound 0.03 µM) was 5.93%, the viability, T/C (second compound 3.16 µM, first compound 0.0949 µM) was 3.68% and the viability, T/C (second compound 3.16 µM, first compound 0.3 µM) was 2.2%. The viability, T/C (second compound 10 µM, first compound 0.000949 µM) was 31.7%, the viability, T/C (second compound 10 µM, first compound 0.003 µM) was 20.2% and the viability, T/C (second compound 10 µM, first compound 0.00949 µM) was 8.85%. For the same compound, the viability, T/C (second compound 10 µM, first compound 0.03 µM) was 5.36%, the viability, T/C (second compound 10 µM, first compound 0.0949 µM) was 3.22% and the viability, T/C (second compound 10 µM, first compound 0.3 µM) was 2.27%.
